Experimental data from PMC11637191, “The pH-dependence of efflux ratios determined with bidirectional transport assays across cellular monolayers” (International Journal of Pharmaceutics: X, 2024).
Several values for one entry are separate records, joined by “and”; a condition that tells them apart may be missing. Equal entries are not always repeated. Where two headings read alike, the source gives them in different places.

Tests used:
[1] = Measurement of paracellular transport (Ppara) in MDCK-MDR1 cells with and without P-gp inhibitors; type: in vitro ADME, canine; conditions: dog; for Papp: MDCK-MDR1, with elacridar 2 µM
From the text: (§1) In initial fits, we used experimentally obtained values for Ppara , determined by measuring the Papp of the relevant compound at a pH value where paracellular transport was expected to dominate. Since the compounds in this study are P-gp substrates, elacridar was also used to inhibit P-gp. Under these conditions, the measured Papp is expected to be a measure of Ppara . […]
(§2) X Measurement of paracellular transport […]
(§3) assess its relative contribution to overall flux, it is necessary to quantify paracellular transport in some way. An approximation of paracellular transport can be mathematically calculated as desc ribed in […]
(§4) and cell type can influence and complicate the predictions, leading to uncertainties. H owever, it can also be experimentally measured provided that it can be assured that the P app would be dominated by the contribution of P para . […]
(§5) compounds. In order to ensure paracellular dominance, 2 µM elacridar was used to inhibit potential P-gp facilitated efflux, and the transport buffer was set to a pH that would severely restrict the neutral […]
(§6) Table S13: P app values and measured logP para for basic and acidic marker compounds. P app values are the mean of three timepoints per replicate, for a total of three replicates (n = 3) ± standard […]
(§7) Compound pH Papp, A⟶B logP para Recovery fn
(§8) In light of the uncertainties in predicting P para , it was presumed more apt to measure P para for each compound individually in parallel with the pH dependence experiments. As described in Section 4.3 of the main text, experiments were initially performed for each tested compound with inhibitor and appropriate pH values (similar to those performed for Table S12) in an attempt to ensure the dominance of paracellular transport. These values could then be used as a direct measure for P para for each compound that could be fed to the model for its individual fit. […]
(§9) affecting P para and/or the measurement of it, we measured the P app of more commonly-used markers for paracellular transport with and without inhibitor. The transport of these rather hydrophilic compounds is known to be dominated by the paracellular route. Furthermore, for our MDCK- MDR1 […]
(§10) efflux is not expected to play a role. As such, the addition of inhibitor in this case is purely to evaluate if the P app changes when it is present.

[2] = determined 25 °C; etoposide acidic, acebutolol basic; ref Avdeef, 2012; cited from earlier work
in vitro = conditions: dog
P-gp (MDR1) [3] = experiment: in vitro; conditions: dog
MDCK-MDR1 cells [4] = conditions: cited from earlier work
[5] = Calculation of neutral fraction (fn)
MDCK-MDR1 cells [6] = experiment: Comparison of Papp,B-A with and without inhibitor in MDCK-MDR1 cells (own and literature data)
P-gp (MDR1) [7] = experiment: as above; conditions: dog, This study, varying pH with the iso-method
MDCK-MDR1 cells [8] = conditions: dog, MDCK-MDR1, pH 7.4
P-gp (MDR1) [9] = experiment: Measurement of paracellular transport (Ppara) in MDCK-MDR1 cells with and without P-gp inhibitors; type: in vitro ADME, canine; conditions: dog, pH 7.4, one replicate
From the text: as §1, §2, §3, §4, §5, §6, §7, §8, §9, §10

Question: Which results are given for CCCC(=O)Nc1ccc(OCC(O)CNC(C)C)c(C(C)=O)c1 (centres unmarked) [Acebutolol]?
Answer: recovery ([1]; MDCK-MDR1, pH 5, with elacridar 2 µM, + 2 µM elacridar, pH 5, n = 3 (Table S13)): 100%; Papp ([1]; + 2 µM elacridar, pH 5, three replicates (n = 3) (Table S13)): 0.6 ± 0.2 ×10⁻⁶ cm/s; pKa [2]: 9.18; recovery (in vitro; MDCK-MDR1, pH 5): 90 to 106%; recovery (in vitro; MDCK-MDR1, pH 6): 88 to 120%; recovery (in vitro; MDCK-MDR1, pH 7): 88 to 102%; recovery (in vitro; MDCK-MDR1, pH 8): 78 to 83%; recovery (in vitro; MDCK-MDR1, pH 9): 72 to 79%; Papp (P-gp (MDR1) [3]; MDCK-MDR1, pH 5): 0.31 ± 0.11 ×10⁻⁶ cm/s; Papp B→A (P-gp (MDR1) [3]; MDCK-MDR1, pH 5): 0.28 ± 0.05 ×10⁻⁶ cm/s; Papp (P-gp (MDR1) [3]; MDCK-MDR1, pH 6): 0.1 ± 0.02 ×10⁻⁶ cm/s; Papp B→A (P-gp (MDR1) [3]; MDCK-MDR1, pH 6): 0.47 ± 0.07 ×10⁻⁶ cm/s; Papp (P-gp (MDR1) [3]; MDCK-MDR1, pH 7): 0.18 ± 0.02 ×10⁻⁶ cm/s; Papp B→A (P-gp (MDR1) [3]; MDCK-MDR1, pH 7): 2.92 ± 1.12 ×10⁻⁶ cm/s; Papp (P-gp (MDR1) [3]; MDCK-MDR1, pH 8): 0.61 ± 0.28 ×10⁻⁶ cm/s; Papp B→A (P-gp (MDR1) [3]; MDCK-MDR1, pH 8): 16.7 ± 2.4 ×10⁻⁶ cm/s; Papp (P-gp (MDR1) [3]; MDCK-MDR1, pH 9): 7.41 ± 3.04 ×10⁻⁶ cm/s; Papp B→A (P-gp (MDR1) [3]; MDCK-MDR1, pH 9): 38.5 ± 8.5 ×10⁻⁶ cm/s; Papp, inhibitor (MDCK-MDR1 cells [4]; with inhibitor, pH 7.4 iso-method, ref Troutman and Thakker (2003)): 3.73e-06 cm/s; Papp, B⟶A (MDCK-MDR1 cells [4]; without inhibitor, pH 7.4 iso-method, ref Troutman and Thakker (2003)): 1.72e-05 cm/s; fn ([5]; neutral fraction at pH 5): 0.0%; fn ([5]; neutral fraction at pH 8): 6%; Factor difference (MDCK-MDR1 cells [6]; This study, Papp,B⟶A vs Papp with inhibitor, varying pH with the iso-method): 3 and 5; Papp, inhibitor (MDCK-MDR1 cells [6]; This study, with inhibitor, varying pH with the iso-method): 3.16 ×10⁻⁶ cm/s; Papp, B⟶A (MDCK-MDR1 cells [6]; This study, without inhibitor, varying pH with the iso-method): 16.7 ×10⁻⁶ cm/s; Factor difference (MDCK-MDR1 cells [6]; calculated from literature Papp,B⟶A and Papp with inhibitor, pH 7.4 iso-method): 5; Papp (P-gp (MDR1) [7]; MDCK-MDR1, Papp, B⟶A, without inhibitor): 16.7 ×10⁻⁶ cm/s; Papp (P-gp (MDR1) [7]; MDCK-MDR1, pH 8, with P-gp inhibitor (elacridar 2 µM in this study's P0 assays), Papp, inhibitor, with inhibitor): 5.03 ×10⁻⁶ cm/s

Question: What does the source list for CC[C@@H](CO)NC(=O)[C@@H]1C=C2c3cccc4c3c(cn4C)C[C@H]2N(C)C1 [Methysergide]?
Answer: Factor difference (MDCK-MDR1 cells [8]): 2; Papp, B⟶A (MDCK-MDR1 cells [4]; MDCK-MDR1, pH 7.4): 75.3; Papp, inhibitor (MDCK-MDR1 cells [4]; MDCK-MDR1, pH 7.4): 39.4

Question: For NS(=O)(=O)c1cc2c(cc1Cl)N=CNS2(=O)=O [Chlorothiazide], which recovery ([1]; MDCK-MDR1, pH 7.4, A⟶B, no inhibitor, pH 7.4) is on record?
Answer: 125%

Question: What about the recovery ([1]; MDCK-MDR1, pH 7.4, B⟶A, no inhibitor, pH 7.4) of the same molecule?
Answer: 104%

Question: And the recovery ([1]; MDCK-MDR1, pH 7.4, with cyclosporin A 10 µM, A⟶B + cyclosporin-A, pH 7.4)?
Answer: 108%

Question: What about the recovery ([1]; MDCK-MDR1, pH 7.4, with elacridar 2 µM, A⟶B + elacridar, pH 7.4) of the same molecule?
Answer: 100%

Question: What about the recovery ([1]; MDCK-MDR1, pH 7.4, with verapamil 100 µM, A⟶B + verapamil, pH 7.4) of the same molecule?
Answer: 96%

Question: And the recovery ([1]; MDCK-MDR1, pH 9, with elacridar 2 µM, + 2 µM elacridar, pH 9, n = 3 (Table S13))?
Answer: 105%

Question: What about the Papp ([1]; + 2 µM elacridar, pH 9, three replicates (n = 3) (Table S13)) of the same molecule?
Answer: 1.7 ± 0.7 ×10⁻⁶ cm/s

Question: And the Papp (P-gp (MDR1) [9]; MDCK-MDR1, with cyclosporin A 10 µM, A → B + cyclosporin-A (10 μM))?
Answer: 0.7 ×10⁻⁶ cm/s

Question: What about the Papp (P-gp (MDR1) [9]; MDCK-MDR1, with elacridar 2 µM, A → B + elacridar (2 μM)) of the same molecule?
Answer: 0.9 ×10⁻⁶ cm/s

Question: And the Papp (P-gp (MDR1) [9]; MDCK-MDR1, with verapamil 100 µM, A → B + verapamil (100 μM))?
Answer: 1.4 ± 0.1 ×10⁻⁶ cm/s

Question: What about the Papp (P-gp (MDR1) [9]; MDCK-MDR1, A → B, no inhibitor) of the same molecule?
Answer: 0.2 ×10⁻⁶ cm/s

Question: What about the fn ([5]; neutral fraction at pH 7.4) of the same molecule?
Answer: 16.5%

Question: And the fn ([5]; neutral fraction at pH 9)?
Answer: 0.8%
